In assay [1] the target is T1, Fc-fusion protein of human PSMA (hPSMA-Fc) (Homo sapiens, UniProt Q04609).
T1 construct: purchased Acro Biosystems PSA-H5264
Briefly: Surface plasmon resonance assay (Biacore T200, single cycle kinetic). It is filed as binding. The note with it: PSMA SPR assay, category; read-out: pKD CAT (converted). A digest of the protocol: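 hPSMA-Fc was captured (~1000 RU) on an Fc-binding-peptide CM5 chip, and compounds were run in single cycle kinetic mode at 25° C in HBST with 0.1% DMSO. Double-blank-corrected sensorgrams were fitted to a 1:1 Langmuir model to give KD, reported as pKD.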

The target of assay [2] is T2, PSMA-expressing C4-2 cells (Homo sapiens, UniProt Q04609).
T2 construct: PSMA-expressing C4-2 cells (ATCC, Cat. No. CRL-3314) were cultured in RPMI-1640; host or cells: C4-2 cells
T2 sequence (Q04609 whole entry): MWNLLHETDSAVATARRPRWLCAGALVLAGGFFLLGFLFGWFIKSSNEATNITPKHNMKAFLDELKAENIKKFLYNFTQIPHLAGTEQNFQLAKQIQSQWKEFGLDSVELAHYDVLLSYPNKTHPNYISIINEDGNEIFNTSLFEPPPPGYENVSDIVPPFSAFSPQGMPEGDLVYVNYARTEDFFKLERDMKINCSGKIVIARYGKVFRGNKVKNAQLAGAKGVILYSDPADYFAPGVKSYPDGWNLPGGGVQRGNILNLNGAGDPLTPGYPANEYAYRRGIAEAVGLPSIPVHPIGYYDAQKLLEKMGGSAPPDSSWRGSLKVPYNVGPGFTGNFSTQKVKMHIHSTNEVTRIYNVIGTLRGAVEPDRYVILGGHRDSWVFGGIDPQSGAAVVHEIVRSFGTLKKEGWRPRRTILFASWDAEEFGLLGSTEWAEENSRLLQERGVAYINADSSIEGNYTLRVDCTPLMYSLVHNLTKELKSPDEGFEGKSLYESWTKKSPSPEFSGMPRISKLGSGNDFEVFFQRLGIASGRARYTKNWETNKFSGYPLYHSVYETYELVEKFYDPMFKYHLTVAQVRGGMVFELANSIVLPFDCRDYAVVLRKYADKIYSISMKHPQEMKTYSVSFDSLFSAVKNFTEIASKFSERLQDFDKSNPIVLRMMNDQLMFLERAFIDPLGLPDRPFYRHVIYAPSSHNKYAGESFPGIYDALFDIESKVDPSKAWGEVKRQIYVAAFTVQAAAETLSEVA
Briefly: FACS binding assay (competition with 50 nM PSM-0183). Particulars: FACS binding, C4-2 cells, category; read-out: pIC50 [C4-2] CAT (converted). A digest of the protocol:
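C4-2 cells were incubated 1 h at 4 °C with 50 nM AF488-labelled peptide PSM-0183 plus increasing test compound concentrations, then washed twice in ice-cold buffer. Median fluorescence in the AF488 channel was read by flow cytometry. IC50/pIC50 was derived by 4PL fitting of MFI versus concentration.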

Numbered stars: 1 amine (or outer) side, 2 acyl side, 3 side chain; on linkers, the order of the positions; unused ones are H or OH. Bridge positions count the residues as written; N and C are the ends. Square brackets hold non-standard residues; d marks the D form. Side chains are listed from the residue outwards. Peptide text beside a SMILES is read from it. * marks the point of attachment. DOTA = O=C(O)CN1CCN(CC(=O)O)CCN(CC(=O)*)CCN(CC(=O)O)CC1; X16 = CNC(=N)N(C)CCC[C@H](N[*:1])C(=O)[*:2]; Phe(3-Cl) = N[C@@H](Cc1cccc(Cl)c1)C(=O)O; Phe(4-Cl) = N[C@@H](Cc1ccc(Cl)cc1)C(=O)O; X1 = O=C(CC1CCN([*:1])CC1)[*:2]; Cit = NC(=O)NCCC[C@H](N)C(=O)O; Lys(Me) = CNCCCC[C@H](N)C(=O)O; NMeN = CN[C@@H](CC(N)=O)C(=O)O; Suc = O=C(CCC(=O)[*:2])[*:1]; Tle = CC(C)(C)[C@H](N)C(=O)O; Nle = CCCC[C@H](N)C(=O)O; Aib = CC(C)(N)C(=O)O; Ahx = NCCCCCC(=O)O

T1 sequence (Q04609 44-750 limits assumed): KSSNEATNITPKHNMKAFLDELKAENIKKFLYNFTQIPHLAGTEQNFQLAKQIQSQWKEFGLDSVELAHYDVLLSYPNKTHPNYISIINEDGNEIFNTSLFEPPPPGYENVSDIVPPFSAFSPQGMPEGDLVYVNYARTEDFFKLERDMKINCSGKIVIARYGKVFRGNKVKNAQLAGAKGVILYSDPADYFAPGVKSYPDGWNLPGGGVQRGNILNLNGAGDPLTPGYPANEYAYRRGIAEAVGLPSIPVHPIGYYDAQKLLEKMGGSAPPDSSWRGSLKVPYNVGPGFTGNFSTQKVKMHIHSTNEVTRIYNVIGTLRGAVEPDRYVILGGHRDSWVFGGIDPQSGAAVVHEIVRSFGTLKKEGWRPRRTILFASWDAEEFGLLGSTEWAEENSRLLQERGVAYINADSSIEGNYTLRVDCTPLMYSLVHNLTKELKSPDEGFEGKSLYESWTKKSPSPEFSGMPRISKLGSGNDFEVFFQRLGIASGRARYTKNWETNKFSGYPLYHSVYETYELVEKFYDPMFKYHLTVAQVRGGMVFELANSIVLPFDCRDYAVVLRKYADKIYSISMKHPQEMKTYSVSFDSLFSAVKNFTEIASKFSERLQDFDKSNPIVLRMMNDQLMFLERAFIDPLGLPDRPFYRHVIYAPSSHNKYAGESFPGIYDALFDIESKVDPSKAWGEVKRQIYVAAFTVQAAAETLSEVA

For `C[C@@H](O)[C@H](NC(=O)[C@@H](NC(=O)[C@@H]1CSSC[C@H](NC(=O)[C@H](Cc2ccccc2)NC(=O)C(C)(C)NC(=O)CCC(=O)O)C(=O)N[C@@H](CCCCN)C(=O)N[C@@H](CCCNC(=N)N)C(=O)NC(C)(C)C(=O)N[C@@H](CC(N)=O)C(=O)N1)C(C)(C)C)C(N)=O` [PSM-0577, HO-Succinyl-Aib-Phe-[Cys-Lys-Arg-Aib-Asn-Cys]-Tle-Thr-NH2] (Suc-[Aib]FCKR[Aib]NC[Tle]T-NH2; disulfide 3-8), the Kd in assay [1] was 12.6 to 126 nM. For the same compound, the IC50 in assay [2] was below 200 nM.
Take `CCCC[C@H](NC(=O)[C@@H]1CSSC[C@H](NC(=O)[C@H](Cc2ccccc2)NC(=O)[C@H](C)NC(=O)[C@@H](NC(C)=O)[C@@H](C)O)C(=O)N[C@@H](CCCCN)C(=O)N[C@@H](CCCNC(=N)N)C(=O)NC(C)(C)C(=O)N[C@@H](CC(N)=O)C(=O)N1)C(=O)N[C@H](C(=O)N[C@@H](CC(=O)O)C(N)=O)[C@@H](C)O` [PSM-0578, Ac-Thr-Ala-Phe-[Cys-Lys-Arg-Aib-Asn-Cys]-Nle-Thr-Asp-NH2] (Ac-TAFCKR[Aib]NC[Nle]TD-NH2; disulfide 4-9): the Kd in assay [1] is 12.6 to 126 nM. In assay [2], the IC50 is below 200 nM.
For `CCCC[C@H](NC(=O)[C@@H]1CSSC[C@H](NC(=O)[C@H](Cc2ccccc2)NC(=O)[C@H](C)NC(=O)[C@@H](NC(C)=O)[C@@H](C)O)C(=O)N[C@@H](CCCCN)C(=O)N[C@@H](C)C(=O)N[C@@H](C)C(=O)N[C@@H](CC(N)=O)C(=O)N1)C(=O)N[C@H](C(=O)N[C@@H](CC(=O)O)C(N)=O)[C@@H](C)O` [PSM-0581, Ac-Thr-Ala-Phe-[Cys-Lys-Ala-Ala-Asn-Cys]-Nle-Thr-Asp-NH2] (Ac-TAFCKAANC[Nle]TD-NH2; disulfide 4-9), in that order: above 501 nM and 1260 to 3160 nM.
In the same order, the values of `CC(=O)N[C@H](C(=O)NC(C)(C)C(=O)N[C@@H](Cc1ccccc1)C(=O)N[C@H]1CSSC[C@@H](C(=O)N[C@H](C(=O)N[C@H](C(N)=O)[C@@H](C)O)C(C)(C)C)NC(=O)[C@H](CC(N)=O)NC(=O)[C@H](CCCCNC(=O)CCCCCNC(=O)CN2CCN(CC(=O)O)CCN(CC(=O)O)CCN(CC(=O)O)CC2)NC(=O)[C@H](CCCNC(N)=O)NC(=O)[C@H](CCCCN)NC1=O)[C@@H](C)O` [PSM-0582, Ac-Thr-Aib-Phe-[Cys-Lys-Arg-Lys(DOTA-Ahx)-Asn-Cys]-Tle-Thr-NH2] (Ac-T[Aib]FCK[Cit]K([Ahx-DOTA])NC[Tle]T-NH2; disulfide 4-9) are below 12.6 nM and below 200 nM.
For `C[C@@H](O)[C@H](NC(=O)[C@@H](NC(=O)[C@@H]1CSSC[C@H](NC(=O)[C@H](Cc2cccc(Cl)c2)NC(=O)C(C)(C)NC(=O)[C@@H](NC(=O)CC2CCN(C(=O)CN3CCN(CC(=O)O)CCN(CC(=O)O)CCN(CC(=O)O)CC3)CC2)[C@@H](C)O)C(=O)N[C@@H](CCCCN)C(=O)N[C@@H](CCCNC(=N)N)C(=O)NC(C)(C)C(=O)N[C@@H](CC(N)=O)C(=O)N1)C(C)(C)C)C(N)=O` [PSM-0583, DOTA-Cmp-Thr-Aib-Mcf-[Cys-Lys-Arg-Aib-Asn-Cys]-Tle-Thr-NH2] ({DOTA}-[X1]T[Aib][Phe(3-Cl)]CKR[Aib]NC[Tle]T-NH2; disulfide 5-10), in that order: below 12.6 nM and below 200 nM.
For the compound `CC(=O)N[C@H](C(=O)NC(C)(C)C(=O)N[C@@H](Cc1ccc(Cl)cc1)C(=O)N[C@H]1CSSC[C@@H](C(=O)N[C@H](C(=O)N[C@H](C(N)=O)[C@@H](C)O)C(C)(C)C)NC(=O)[C@H](CC(C)C)NC(=O)C(C)(C)NC(=O)[C@H](CCCNC(=N)N)NC(=O)[C@H](CCCCN)NC1=O)[C@@H](C)O` [PSM-0584, Ac-Thr-Aib-Pcf-[Cys-Lys-Cit-Aib-Leu-Cys]-Tle-Thr-NH2] (Ac-T[Aib][Phe(4-Cl)]CKR[Aib]LC[Tle]T-NH2; disulfide 4-9), the Kd in assay [1] was below 12.6 nM. In addition, the IC50 in assay [2] was below 200 nM.
As for `C[C@@H]1NC(=O)[C@H](CCCNC(=N)N)NC(=O)[C@H](CCCCN)NC(=O)[C@@H](NC(=O)[C@H](Cc2ccc(Cl)cc2)NC(=O)C(C)(C)NC(=O)[C@@H](NC(=O)CC2CCN(C(=O)CN3CCN(CC(=O)O)CCN(CC(=O)O)CCN(CC(=O)O)CC3)CC2)[C@@H](C)O)CSSC[C@@H](C(=O)N[C@H](C(=O)N[C@H](C(N)=O)[C@@H](C)O)C(C)(C)C)NC(=O)[C@H](CC(N)=O)N(C)C1=O` [PSM-0585, DOTA-Cmp-Thr-Aib-Pcf-[Cys-Lys-Arg-Ala-Nmn-Cys]-Tle-Thr-NH2] ({DOTA}-[X1]T[Aib][Phe(4-Cl)]CKRA[NMeN]C[Tle]T-NH2; disulfide 5-10), the Kd in assay [1] is 12.6 to 126 nM. In addition, the IC50 in assay [2] was below 200 nM.
In the same order, the values of `CCCC[C@H](NC(=O)[C@@H]1CSSC[C@H](NC(=O)[C@H](C)NC(=O)[C@H](C)NC(=O)[C@@H](NC(C)=O)[C@@H](C)O)C(=O)N[C@@H](CCCCN)C(=O)N[C@@H](CCCNC(=N)N)C(=O)N[C@@H](C)C(=O)N[C@@H](CC(N)=O)C(=O)N1)C(=O)N[C@H](C(=O)N[C@@H](CC(=O)O)C(N)=O)[C@@H](C)O` [PSM-0586, Ac-Thr-Ala-Ala-[Cys-Lys-Arg-Ala-Asn-Cys]-Nle-Thr-Asp-NH2] (Ac-TAACKRANC[Nle]TD-NH2; disulfide 4-9) are above 501 nM and above 3160 nM.
For `CC(=O)N[C@H](C(=O)NC(C)(C)C(=O)N[C@@H](Cc1c[nH]c2ccccc12)C(=O)N[C@H]1CSSC[C@@H](C(=O)N[C@H](C(=O)N[C@H](C(=O)N[C@@H](CC(=O)O)C(N)=O)[C@@H](C)O)C(C)(C)C)NC(=O)[C@H](CC(N)=O)NC(=O)C(C)(C)NC(=O)[C@H](CCCNC(=N)N)NC(=O)[C@H](CCCCN)NC1=O)[C@@H](C)O` [PSM-0587, Ac-Thr-Aib-Trp-[Cys-Lys-Arg-Aib-Asn-Cys]-Tle-Thr-Asp-NH2] (Ac-T[Aib]WCKR[Aib]NC[Tle]TD-NH2; disulfide 4-9), in that order: below 12.6 nM and below 200 nM.
In the same order, the values of `CC(=O)N[C@H](C(=O)NC(C)(C)C(=O)N[C@@H](Cc1ccccc1)C(=O)N[C@H]1CSSC[C@@H](C(=O)N[C@H](C(=O)N[C@H](C(N)=O)[C@@H](C)O)C(C)(C)C)NC(=O)[C@H](Cc2c[nH]c3ccccc23)NC(=O)C(C)(C)NC(=O)[C@H](CCCNC(=N)N)NC(=O)[C@H](CCCCN)NC1=O)[C@@H](C)O` [PSM-0589, Ac-Thr-Aib-Phe-[Cys-Lys-Arg-Aib-Trp-Cys]-Tle-Thr-NH2] (Ac-T[Aib]FCKR[Aib]WC[Tle]T-NH2; disulfide 4-9) are below 12.6 nM and below 200 nM.
In the case of `CNCCCC[C@@H]1NC(=O)[C@@H](NC(=O)[C@H](Cc2ccc(Cl)cc2)NC(=O)C(C)(C)NC(=O)[C@@H](NC(=O)CC2CCN(C(=O)CN3CCN(CC(=O)O)CCN(CC(=O)O)CCN(CC(=O)O)CC3)CC2)[C@@H](C)O)CSSC[C@@H](C(=O)N[C@H](C(=O)N[C@H](C(N)=O)[C@@H](C)O)C(C)(C)C)NC(=O)[C@H](CC(N)=O)NC(=O)C(C)(C)NC(=O)[C@H](CCCN(C)C(=N)NC)NC1=O` [PSM-0590, DOTA-Cmp-Thr-Aib-Pcf-[Cys-Lys(Me)-RMe2a-Aib-Asn-Cys]-Tle-Thr-NH2] ({DOTA}-[X1]T[Aib][Phe(4-Cl)]C[Lys(Me)][X16][Aib]NC[Tle]T-NH2; disulfide 5-10), the Kd in assay [1] was below 12.6 nM. Also, the IC50 in assay [2] was below 200 nM.
